{
  "source": "paper PMC10272112",
  "about": "(Nature Communications, 2023)",
  "key": {"TwinStrep-GST-HDAC10": {"target": "T1, TwinStrep-GST-HDAC10 (Homo sapiens, UniProt Q969S8)", "T1 sequence (Q969S8 1-669)": "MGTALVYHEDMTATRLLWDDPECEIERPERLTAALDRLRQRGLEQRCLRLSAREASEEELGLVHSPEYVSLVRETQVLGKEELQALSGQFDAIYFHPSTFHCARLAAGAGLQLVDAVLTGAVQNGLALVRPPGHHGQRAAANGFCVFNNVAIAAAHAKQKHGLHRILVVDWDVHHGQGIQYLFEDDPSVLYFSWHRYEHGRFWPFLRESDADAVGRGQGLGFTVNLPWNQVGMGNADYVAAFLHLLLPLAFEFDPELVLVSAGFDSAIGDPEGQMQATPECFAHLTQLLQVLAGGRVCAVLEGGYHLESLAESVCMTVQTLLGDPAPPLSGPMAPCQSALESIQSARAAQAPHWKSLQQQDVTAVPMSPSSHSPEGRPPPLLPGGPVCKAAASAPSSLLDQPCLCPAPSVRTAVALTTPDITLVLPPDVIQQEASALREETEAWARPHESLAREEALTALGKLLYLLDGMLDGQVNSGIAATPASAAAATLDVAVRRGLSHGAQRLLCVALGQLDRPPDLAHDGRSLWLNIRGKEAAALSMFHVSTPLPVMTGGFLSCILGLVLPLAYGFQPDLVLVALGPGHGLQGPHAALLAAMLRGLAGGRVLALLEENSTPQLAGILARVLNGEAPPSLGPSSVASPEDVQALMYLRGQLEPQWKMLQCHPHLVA", "test": "HDAC10 TR-FRET assay", "format": "binding", "conditions": "sheet S2e", "description": "(§1) To validate the inhibition of HDACs by LA and LM and elaborate on the structure-activity relationship (SAR) of enantiomers as well as oxidized versus reduced forms of the molecules, we performed enzyme activity assays for recombinant HDAC1,2,3,6,8 as well as FRET-based binding assay for recombinant HDAC10.\nInhibitors with a D300e Digital Dispenser (Tecan). After drug dosing to the premixed assay reagents in buffer, plates were shaken (800 rpm orbital shaker, 30 s), centrifuged (300g, 1 min), and incubated at RT in the dark for 90 min. TR-FRET was measured with a CLARIOstar (BMG Labtech) plate reader, equipped with TR-FRET filters."}, "A549 cells": {"tested_on": "A549 cells", "test": "Arsenite-induced stress granule formation (G3BP1 immunofluorescence)", "format": "cell-based", "conditions": "for arsenite-induced stress granule quantification (G3BP1), Mean / arsenite-induced stress granule quantification (G3BP1), Median / arsenite-induced stress granule quantification (G3BP1), individual values: sheet 4b; for arsenite-induced stress granule quantification (G3BP1), individual values: single data points", "description": "The acetylation status of proteins can affect their macromolecular associations and the tendency of proteins to phase-separate into liquid condensates such as stress granules. […] After pre-incubation of cells with the compound, stress granule formation was induced using 30 min of arsenite treatment (1 mM). After treatment, cells were fixed for immunofluorescence detection of stress granules via the common stress granule marker protein G3BP1[21].\n0.03 × 10^6 A549 cells were seeded at 4-chamber slides (Thermo, Nunc) and cultured at 37 °C overnight. Cells were treated with HDAC inhibitor SAHA and Lipoic acid or LM for 6 h, followed by 1 mM Arsenite for 30 min. Cells were fixed by 4% PFA and permeabilized by 0.5% Triton X-100/PBS. 10% Goat serum in PBS was used for blocking. After manually selecting an area with cell confluency of 50–80%, 16 pictures were taken randomly around the central point (ZEISS software in-built function). Stress granule marker G3BP1 (Aviva Systems Biology, ARP37713_T100) was visualized and quantified by ImageJ. Statistical analysis was performed with GraphPad Prism."}, "HDAC1": {"target": "HDAC1 (Homo sapiens, UniProt Q13547)", "sequence (Q13547 whole entry)": "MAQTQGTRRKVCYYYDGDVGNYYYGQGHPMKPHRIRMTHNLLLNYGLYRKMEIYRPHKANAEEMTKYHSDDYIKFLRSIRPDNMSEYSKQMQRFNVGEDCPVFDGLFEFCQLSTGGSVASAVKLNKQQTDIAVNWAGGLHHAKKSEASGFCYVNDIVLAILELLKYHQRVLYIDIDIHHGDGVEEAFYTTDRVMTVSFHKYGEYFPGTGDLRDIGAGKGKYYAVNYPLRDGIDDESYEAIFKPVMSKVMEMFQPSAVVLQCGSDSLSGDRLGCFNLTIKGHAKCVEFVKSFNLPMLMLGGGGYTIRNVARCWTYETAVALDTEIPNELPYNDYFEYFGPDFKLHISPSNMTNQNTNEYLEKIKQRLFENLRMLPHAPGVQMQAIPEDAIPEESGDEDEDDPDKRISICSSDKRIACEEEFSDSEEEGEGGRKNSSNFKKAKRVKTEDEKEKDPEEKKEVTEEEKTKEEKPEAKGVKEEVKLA", "test": "HDAC-Glo assay", "format": "biochemical", "set-up": "purchased BPS Bioscience 50051", "conditions": "0.5 M TCEP, listed as SAHA", "description": "as §1\nThe experiments were performed according to ref. [48]. […] Drug dosing was performed with a D300e Digital Dispenser (Tecan). HDACs (7 ng/mL for HDAC1, 25 ng/mL for HDAC2, 200 ng/mL for HDAC3/Ncor2 complex, 100 ng/mL for HDAC6, 200 ng/mL for HDAC8) and inhibitors were incubated together at room temperature (RT) for 30 min. After the addition of the HDAC-Glo™ I/II reagent, plates were shaken (800 rpm orbital shaker, 30 s), centrifuged (300 g, 1 min), and incubated at RT for 30 min. Luminescence was detected with a CLARIOstar (BMG Labtech) plate reader."}},
  "note": "Several values for one entry are separate records, joined by “and”; a condition that tells them apart may be missing. Equal values may be shown once.",
  "data": [
    {"smiles": "O=C(O)CCCCC1CCSS1", "note": "(centres unmarked) [R/S Lipoic Acid]", "values": [
      {"measurement": "HDAC10 TR-FRET relative signal", "setting": "TwinStrep-GST-HDAC10; log conc -4.58031", "result": "16.6621 and 17.5526 and 13.058"},
      {"measurement": "HDAC10 TR-FRET relative signal", "setting": "TwinStrep-GST-HDAC10; log conc -5.16059", "result": "24.6813 and 29.9295 and 28.3509"},
      {"measurement": "HDAC10 TR-FRET relative signal", "setting": "TwinStrep-GST-HDAC10; log conc -5.74088", "result": "52.1664 and 54.0588 and 51.0514"},
      {"measurement": "HDAC10 TR-FRET relative signal", "setting": "TwinStrep-GST-HDAC10; log conc -6.32148", "result": "88.5435 and 84.6455 and 96.7603"},
      {"measurement": "HDAC10 TR-FRET relative signal", "setting": "TwinStrep-GST-HDAC10; log conc -6.92082", "result": "91.5597 and 91.2649 and 101.82"},
      {"measurement": "HDAC10 TR-FRET relative signal", "setting": "TwinStrep-GST-HDAC10; log conc -7.57349", "result": "99.4261 and 99.6664 and 105.18"},
      {"measurement": "HDAC10 TR-FRET relative signal", "setting": "TwinStrep-GST-HDAC10; log conc -8.06198", "result": "106.58 and 110.725 and 95.693"}
    ]},
    {"smiles": "NC(=O)CCCCC1CCSS1", "note": "(centres unmarked) [R/S Lipoic Amide]", "values": [
      {"measurement": "HDAC10 TR-FRET relative signal", "setting": "TwinStrep-GST-HDAC10; log conc -4", "result": "8.95 and 4.904 and 5.819"},
      {"measurement": "HDAC10 TR-FRET relative signal", "setting": "TwinStrep-GST-HDAC10; log conc -6.32148", "result": "8.47 and 4.461 and 8.704"},
      {"measurement": "HDAC10 TR-FRET relative signal", "setting": "TwinStrep-GST-HDAC10; log conc -7.57349", "result": "45.0477 and 41.2172 and 50.7784"},
      {"measurement": "HDAC10 TR-FRET relative signal", "setting": "TwinStrep-GST-HDAC10; log conc -8.06198", "result": "82.499 and 87.6271 and 84.2057"}
    ]},
    {"smiles": "O=C(CCCCCCC(=O)Nc1ccccc1)NO", "note": "[Vorinostat]", "values": [
      {"measurement": "arsenite-induced stress granule quantification (G3BP1), Mean", "setting": "A549 cells; SAHA 5 uM", "result": 45.6514},
      {"measurement": "arsenite-induced stress granule quantification (G3BP1), Median", "setting": "A549 cells; SAHA 5 uM", "result": 49.1176},
      {"measurement": "arsenite-induced stress granule quantification (G3BP1), individual values", "setting": "A549 cells; SAHA 5 uM", "result": "49.2857 and 50.3 and 41.875 and 50.4286 and 49.1176 and 51.2222 and 60.7 and 38.0833 and 56.9 and 30 and 49.3333 and 45.8824 and 50.6667 and 31.4 and 46 and 38.6364 and 52.8182 and 41.7273 and 33"},
      {"measurement": "arsenite-induced stress granule quantification (G3BP1), Mean", "setting": "A549 cells; SAHA 10 uM", "result": 35.2798},
      {"measurement": "arsenite-induced stress granule quantification (G3BP1), Median", "setting": "A549 cells; SAHA 10 uM", "result": 36},
      {"measurement": "arsenite-induced stress granule quantification (G3BP1), individual values", "setting": "A549 cells; SAHA 10 uM", "result": "44.5 and 23.5 and 22.5 and 18.5 and 15.6364 and 31 and 37.5882 and 55.1667 and 42.2 and 33.2 and 29.6923 and 41.5 and 52.75 and 25.3333 and 40.5 and 51.1667 and 36 and 30.8333 and 38.75"},
      {"measurement": "effect on stress granule numbers per cell", "setting": "A549 cells; pre-incubation 6 h, then 1 mM arsenite 30 min", "result": "dose-dependent reduction of stress granule numbers per cell"},
      {"measurement": "raw luminescence signal, HDAC1 inhibition", "setting": "HDAC1; log10 M -4.30103, 3 technical replicates", "result": "1951 and 1963 and 1822"},
      {"measurement": "raw luminescence signal, HDAC1 inhibition", "setting": "HDAC1; log10 M -5.12407, 3 technical replicates", "result": "3958 and 4231 and 3895"},
      {"measurement": "raw luminescence signal, HDAC1 inhibition", "setting": "HDAC1; log10 M -5.94692, 3 technical replicates", "result": "19908 and 20969 and 19762"},
      {"measurement": "raw luminescence signal, HDAC1 inhibition", "setting": "HDAC1; log10 M -6.76955, 3 technical replicates", "result": "88503 and 91916 and 93868"},
      {"measurement": "raw luminescence signal, HDAC1 inhibition", "setting": "HDAC1; log10 M -7.59346, 3 technical replicates", "result": "248915 and 245579 and 256063"},
      {"measurement": "raw luminescence signal, HDAC1 inhibition", "setting": "HDAC1; log10 M -8.41567, 3 technical replicates", "result": "337631 and 344047 and 344507"},
      {"measurement": "raw luminescence signal, HDAC1 inhibition", "setting": "HDAC1; log10 M -9.27327, 3 technical replicates", "result": "375556 and 372678 and 377396"},
      {"measurement": "raw luminescence signal, HDAC1 inhibition", "setting": "HDAC1; log10 M -10.062, 3 technical replicates", "result": "346292 and 360694 and 357566"}
    ]}
  ]
}
